Literature values in patent US20040157848A1, “Methods and compositions for the treatment of herpes virus infections using cyclooxygenase-2 selective inhibitors or cyclooxygenase-2 inhibitors in combination with antiviral agents” (Pharmacia Corporation, priority 2002, published 2004).

What was measured:
herpes virus = conditions: supplementation with exogenous GSH, in vitro
[1] = test system: cytomegalovirus induced reactive oxygen species; conditions: cytomegalovirus infected human smooth muscle

Compound | inhibition of the replication of herpes virus (herpes virus) | cytomegalovirus induced reactive oxygen species [1]
N[C@@H](CCC(=O)N[C@@H](CS)C(=O)NCC(=O)O)C(=O)O [GSH, glutathione] | over 99% | 
CC(=O)Oc1ccccc1C(=O)O [aspirin] |  | reduces
